Assay results from patent US10111900B2, “β-glucan methods and compositions that affect the tumor microenvironment” (Biothera, Inc., priority 2014, dated 2018).

Tests used:
[1] = system: Monocytes; experiment: Binding of β-glucan to monocytes in whole blood (serum cross-over); type: cell-based, human; conditions: low binder's whole blood with high binder's serum (higher ABA)
Description: To test this, M2 macrophages were prepared as described above with a few modifications. The whole blood of a low binder was spun down to remove the plasma and then the cells were reconstituted with serum obtained from a high binder. The reconstituted blood was treated with vehicle or β-glucan (25 μg/mL) for 2 hours at 37° C. The monocytes were evaluated for binding by using anti-β-glucan specific monoclonal antibody and subsequent flow cytometry.

[2] = system: CD4 and CD8 T cells; experiment: Allogeneic mixed lymphocyte reaction with mMoDC; type: cell-based, human; conditions: β-glucan-treated mMoDC from high binders
[3] = system: CD4 and CD8 T cells; experiment: T cell proliferation and activation of PBMCs in plasma from β-glucan-treated whole blood; type: cell-based, human
Description: To obtain plasma, whole blood was treated for 6 hours with 25 μg/mL β-glucan or vehicle, spun down and the plasma removed. 50,000 autologous CFSE-labeled PBMCs were cultured in the treated plasma for 3 days in the presence of 50,000 T cell activating CD3/28 beads (DYNABEADS Human T-Activator CD3/CD28 for T Cell Expansion and Activation). At the end of the culture, PBMCs were stained with CD4 and CD8 and T cell proliferation was measured by CFSE dilution.
Next, to show the effect of soluble β-glucan on CD4 and CD8 cell activation, the T cell proliferation assay described above was again carried out. At day 3, however, the cells were stained for markers of activation including Granzyme B production and CD25 upregulation.

[4] = system: H1299 NSCLC tumors; experiment: H1299 NSCLC tumors in mice, effect on TME; type: in vivo
Description: Mice bearing H1299 NSCLC tumors were administered bevacizumab (an anti-angiogenic antibody) (5 mg/kg twice weekly IP for four weeks) alone or in combination with IMPRIME PGG (1.2 mg/mouse twice weekly IV for four weeks) as described above for the other mouse studies. […] Increased iNOS and decreased Arginase 1 are markers indicating an M1, immunostimulatory environment.
In addition, at day 20, post tumor injection, spleens were harvested and single cell suspensions were stained with mouse antibodies and analyzed by FACS. GMFI or frequency was calculated in Flowjo after gating on CD11b+F4/80+CD68+ cells (FIG. 17D-FIG. 17F). FIG. 17D and FIG. 17E show an increase in iNOS and a decrease of Arginase-1, respectively. Spleen cells were also stimulated overnight with 100 ng/ml lipopolysaccharide (LPS) and analyzed for TNF-α production. […] As shown, Arginase-1 decreased and iNOS and CD86 increased, which indicates differentiation of splenic MDSC to M1/N1 macrophage/neutrophils with IMPRIME PGG treatment.
For FIG. 17K-FIG. 17M, tumors were harvested at day 20 and digested with type I collagenase for 1 hour at 37° C. Single cell suspensions were stained with mouse antibodies and analyzed by FACS. GMFI or frequency was calculated in Flowjo after gating on CD11b+ cells. As shown, PD-L1 and iNOS increased while Arginase-1 decreased indicating the shift in tumor-infiltrating myeloid cells to a M1-type phenotype.
Lastly, single cell suspensions of the tumor cells were cultured overnight and supernatants were measured for TGF-β by ELISA.

[5] = system: M1 macrophages; experiment: Flow cytometry of M1/M2 markers on M1 macrophages derived from β-glucan-treated whole blood; type: cell-based, human
Description: CD14^+ monocytes from human whole blood were enriched using Ficoll gradient and magnetic bead separation. […] T cell proliferation was measured at the end of the experiment (day 9-day 11) by flow cytometry, and results are graphically shown as CFSE-dilution peaks. […] Quantitative results were reported as the Division Index (the average number of cell divisions a population underwent) calculated for each of the triplicate wells in each of the culture conditions. […]
Expression of a panel of markers was evaluated by flow cytometry for vehicle- and β-glucan-treated, high binder-derived M1 and M2 macrophages (CD163 was evaluated twice).
CD163 and CD86 were evaluated by flow cytometry for vehicle- and β-glucan-treated, low binder-derived M1 and M2 macrophages.

[6] = spleen, day 20, CD11b+F4/80+CD68+ cells

Substance: β(1,6)-[poly-(1,3)-D-glucopyranosyl]-poly-β(1,3)-D-glucopyranose [β-glucan]
- binding of β-glucan to monocytes [1]: significantly higher binding
- immunogenicity in allo-MLR (CD4 and CD8 T cell expansion) ([2]; over low binders): increased immunogenicity
- IFN-γ production ([2]; over low binders and vehicle): able to modulate IFN-γ production
- CD4 and CD8 proliferation ([3]; plasma from whole blood treated 6 hours with 25 μg/mL β-glucan, vs vehicle, CD3/28 beads, 3 days): significant enhancement
- CD4 and CD8 cell activation (Granzyme B production, CD25 upregulation) ([3]; β-glucan-treated plasma, day 3): enhances
- TNF-α production ([4]; spleen cells stimulated overnight with 100 ng/ml LPS): increase
- Arginase-1 ([4]; spleen, CD11b+Gr1+ cells): decreased
- CD86 ([4]; spleen, CD11b+Gr1+ cells): increased
- iNOS ([4]; spleen, CD11b+Gr1+ cells): increased
- Arginase-1 [4, 6]: decrease
- iNOS [4, 6]: increase
- expression of co-stimulatory marker CD86 ([4]; tumor granulocytic MDSC (CD11b+Lyg6+)): enhanced expression
- CD163 (2) median MFI ([5]; M1 macrophages, high binder): 230
- M1 macrophage phenotype (M1/M2-specific markers) ([5]; β-glucan pretreatment vs vehicle): did not affect
